Like-named read-outs stand apart in the source and are kept apart here.
How the values were obtained:
human SKMEL-28 melanoma = test: MTT antiproliferative assay, SKMEL-28; assay type: cell-based; settings: sextuplicates, read-out: GI50 in vitro values, SKMEL-28
Procedure: (§1) Human mammary carcinoma MCF-7 (ATCC HTB22) cells were cultured in RPMI supplemented with 10% FBS. The U87 cells (ATCC HTB-14) were cultured in DMEM culture medium, while the A549 cells (DSMZ ACC107) were cultured in RPMI culture medium supplemented with 10% heat-inactivated FBS. The GBM Hs683 (ATCC HTB-138) cells were cultivated in DMEM supplemented with 10% FBS. The human uterine sarcoma MES-SA (ATCC CRL1966) and MES-SA/D×5 cells were cultured in RPMI-1640 medium supplemented with 10% FBS with MES SA/D×5 maintained in the presence of 500 nM Doxorubicin (Sigma). SKMEL-28 cells (ATCC HTB72) and U373 GBM cells (ECACC 08061901) were cultured in RPMI culture medium supplemented with 10% heat-inactivated FBS. Cell culture media were supplemented with 4 mM glutamine (Lonza code BE17-605E), 100 μg/mL gentamicin (Lonza code 17-5182), and penicillin-streptomycin (200 units/ml and 200 μg/ml) (Lonza code 17-602E). The MDA-MB-231 (ATCC HTB-26) epithelial mammary adenocarcinoma cells were cultured in Eagle's minimum essential medium (EMEM; Invitrogen) containing 5% fetal calf serum (FCS, Cambrex), 2 mM L-glutamine (Invitrogen), 0.06% HEPES (Invitrogen) and penicillin (50 IU/ml)/streptomycin (50 µg/ml; Invitrogen) at 37° C. in a humidified atmosphere of 5% CO2 in air. Transformed mouse NPCs were cultured in suspension under neurosphere conditions at 37° C. in a humidified atmosphere of […] and 5% CO2 in DMEM F12 (Invitrogen 11320-074) supplemented with 1×B27 supplement (Invitrogen 17504-044), 5% penicillin-streptomycin (Biochrom 10378-017), 10 ng/ml EGF (R&D systems 236-EG), 10 ng/ml FGF (PeproTech 100-18B).
(§2) Antiproliferative properties of the synthesized compounds were evaluated by the MTT assay. All compounds were dissolved in DMSO at a concentration of either 100 μM or 50 μM prior to cell treatment. The cells were trypsinized and seeded at various cell concentrations depending on the cell type. The cells were grown for 24 h to 72 h, treated with compounds at concentrations ranging from 0.001 to 100 μM and incubated for 48 or 72 h in 100 or 200 μL media depending on the cell line used. The number of experiments and replicates varied depending on the cell line. Cells treated with 0.1% DMSO were used as a negative control; 1 μM PAO was used as a positive control.
(§3) The synthesized C12-Wittig derivatives were evaluated for antiproliferative activities in a panel of cancer cell lines that included apoptosis-resistant human U373 glioblastoma (GBM) (Lefranc et al., 2013), human A549 non-small cell lung cancer (NSCLC) and human SKMEL-28 melanoma (Mathieu et al., 2009) as well as apoptosis-sensitive human Hs683 anaplastic oligodendroglioma (Lefranc et al., 2013) and human MCF-7 breast cancer (Frolova et al., 2013).

[1] = system: human Hs683 anaplastic oligodendroglioma; test: MTT antiproliferative assay, Hs683; assay type: cell-based; settings: sextuplicates, read-out: GI50 in vitro values, Hs683
Procedure: as §1, §2, §3

[2] = system: human U373 glioblastoma (GBM); test: MTT antiproliferative assay, U373; assay type: cell-based; settings: 72 h treatment, sextuplicates, read-out: GI50 in vitro values, U373
Procedure: as §1, §2, §3

[3] = system: panel of cancer cell lines (A549, SKMEL-28, MCF-7, U373, Hs683); test: MTT antiproliferative assay, panel of five cancer cell lines; assay type: cell-based, human; settings: mean over five cell lines, 72 h treatment, MTT assay, read-out: GI50 in vitro values, Mean + SEM
Procedure: as §2, §3

[4] = system: human A549 non-small cell lung cancer (NSCLC); test: MTT antiproliferative assay, A549; assay type: cell-based; settings: for GI50: 72 h treatment, MTT assay, sextuplicates, read-out: GI50 in vitro values, A549
Procedure: as §1, §2, §3

[5] = system: human MCF-7 breast cancer; test: MTT antiproliferative assay, MCF-7; assay type: cell-based; settings: sextuplicates, read-out: GI50 in vitro values, MCF-7
Procedure: as §1, §2, §3

[6] = system: U87 glioblastoma cell cultures; test: MTT growth curves, U87; assay type: cell-based, human; settings: apoptosis-resistant U87 GBM; concentrations up to 100 μM
Procedure: as §1
(§4) Antiproliferative properties of the synthesized compounds were evaluated by the MTT assay. All compounds were dissolved in DMSO at a concentration of either 100 μM or 50 μM prior to cell treatment. The cells were trypsinized and seeded at various cell concentrations depending on the cell type. […]

HeLa cells = test: Calcium imaging, HeLa; assay type: cell-based, human; settings: polygodial 80 μM, P10 4 μM, P3 50 μM
HeLa-derived tumors = test: Mouse xenograft model, HeLa; assay type: in vivo, athymic nude mice
Procedure: Six-week old female athymic nude mice were used in laminar air-flow cabinet in pathogen-free conditions. They were acclimated for one week prior to the start of the study and kept at controlled temperature and humidity, with food and water. Mice were injected subcutaneously in the flank with 2×10^6 Cal27 cells or HeLa cells in 0.1 mL of sterile PBS. When the tumors reached 100 mm^3 (Cal27) and 150 mm^3 (HeLa), the mice were stratified into 4 groups, […], polygodial, P10, P3 and P27 at the concentrations noted in the figure legends.

[7] = molecular target: T1, CHO cells that overexpress TRPV1 (CHO-TRPV1) (Homo sapiens, UniProt Q8NER1); test: Calcium imaging, CHO-TRPV1; assay type: cell-based; settings: polygodial 80 μM, P10 4 μM, P3 50 μM
T1 construct: expressed in transfected cells; host or cells: CHO cells
T1 sequence (Q8NER1 whole entry): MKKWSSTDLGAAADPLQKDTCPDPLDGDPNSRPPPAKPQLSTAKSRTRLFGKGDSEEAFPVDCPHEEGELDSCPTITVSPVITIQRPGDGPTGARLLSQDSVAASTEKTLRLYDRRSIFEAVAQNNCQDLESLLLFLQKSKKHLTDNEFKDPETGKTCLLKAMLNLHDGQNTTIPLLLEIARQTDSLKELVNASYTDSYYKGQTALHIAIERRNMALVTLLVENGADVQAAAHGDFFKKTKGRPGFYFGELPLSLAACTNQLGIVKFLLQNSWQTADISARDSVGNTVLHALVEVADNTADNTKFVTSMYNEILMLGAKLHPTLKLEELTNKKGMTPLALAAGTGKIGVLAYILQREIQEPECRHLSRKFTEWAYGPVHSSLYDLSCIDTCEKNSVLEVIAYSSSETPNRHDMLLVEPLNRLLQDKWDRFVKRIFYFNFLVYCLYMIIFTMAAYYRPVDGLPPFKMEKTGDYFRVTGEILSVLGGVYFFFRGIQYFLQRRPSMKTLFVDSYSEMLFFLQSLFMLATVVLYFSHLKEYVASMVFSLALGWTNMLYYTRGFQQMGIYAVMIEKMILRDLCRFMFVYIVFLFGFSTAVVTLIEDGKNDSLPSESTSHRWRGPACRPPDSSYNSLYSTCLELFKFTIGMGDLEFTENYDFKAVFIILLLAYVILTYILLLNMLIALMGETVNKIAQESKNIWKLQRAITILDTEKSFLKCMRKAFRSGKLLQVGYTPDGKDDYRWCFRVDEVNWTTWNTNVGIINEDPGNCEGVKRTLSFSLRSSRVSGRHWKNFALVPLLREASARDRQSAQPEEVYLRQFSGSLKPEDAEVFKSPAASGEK
Procedure: CHO cells that overexpress TRPV1 (CHO-TRPV1) were treated with polygodial (80 μM), P10 ([…]), or P3 (50 μM) and calcium influx was measured. Cells were also pre-treated with the TRPV1 antagonist capsazepine (CPZ; 10 μM) to determine if calcium influx via TRPV1 was inhibited. 3 μM ionomycin was used as a positive control. Fluo-4 Direct Calcium Assay Kit and Sweptfield confocal with Nikon Ti were used to visualize calcium influx and the images were analyzed using ImageJ software.

HSC3 cells = test: Calcium imaging, HSC3; assay type: cell-based, human
[8] = system: cervical cancer cell line HeLa; test: Cell viability (Cell Titer 96 Aqueous), HeLa; assay type: cell-based, human; settings: 48 hours; potency order P10, polygodial, P3
From the text: (§5) Human cancer cell lines were obtained from the American Type Culture Collection (ATCC, Manassas, Va., USA), the European Collection of Cell Culture (ECACC, Salisbury, UK) and the Deutsche Sammlung von Mikroorganismen und Zellkulturen (DSMZ, Braunschweig, Germany). The OSCC cell lines, Cal27 and HSC3 are derived from human primary tongue tumor. Cal27 cells were obtained from the American Type Culture Collection (Rockville, Md.). HSC3 cells were provided by Dr. Brian Schmidt. HeLa cells (cervical cancer cell line) were obtained from ATCC. Cells were cultured in DMEM, containing 10% FBS and 1% penicillin-streptomycin media, at 37° C. in 5% CO2. All cells were authenticated by Genetic DNA Laboratories.
(§6) The cytotoxicity of polygodial, P10, P3, and P27 in Cal27, HSC3, and HeLa cells was examined in vitro using a colorimetric assay, Cell Titer 96® Aqueous Non-Radioactive Cell Proliferation Assay. […] GraphPad Prism4 was used to perform statistical analysis.

OSCC cell line HSC3 = test: Cell viability (Cell Titer 96 Aqueous), HSC3; assay type: cell-based, human; settings: 48 hours; potency order P10, polygodial, P3
From the text: as §5, §6

[9] = system: MDR uterine sarcoma cell line MES-SA/Dx5; test: MTT antiproliferative assay, MDR MES-SA/Dx5; assay type: cell-based, human
Procedure: as §1, §2
Selection of the MES-SA/D×5 cell line was done according to Harker et al. (Harker & Sikic, 1985). The cells were split and allowed to adhere overnight. The next day cells were initially exposed to doxorubicin (DOX) at the concentration of 100 nM, which represented the GI50 concentration. The cells were maintained at this DOX concentration until their growth rate reached that of the untreated cells. The DOX concentration was then increased in two-fold increments following the same growth criteria at each concentration to a final DOX concentration of 500 nM. Each new DOX concentration required approximately 2 passages to reach the growth rate of the untreated cells.
Often, tumors initially respond to chemotherapy but eventually become refractory to the continuing treatment. Such acquired resistance commonly occurs through the development of a multi-drug resistant phenotype (MDR) (Gottesman et al., 2002 and Saraswathy & Gong, 2013) affecting many common chemotherapeutic agents, including the vinca alkaloids (Chen et al., 2000) and taxanes (Geney et al., 2002). In addition, the development of apoptosis resistance and MDR mechanisms is often related and concurrent (Ruefli et al., 2002 and Johnstone et al., 1999), and thus it was of interest to evaluate 5 against MDR cells. Towards this end, the MDR uterine sarcoma cell line MES-SA/D×5, established by growing the parent uterine sarcoma MES-SA in the presence of increasing concentrations of doxorubicin and resistant to multiple functionally and structurally unrelated molecules (Harker & Sikic, 1985), was utilized.

[10] = system: uterine sarcoma MES-SA cells; test: MTT antiproliferative assay, MES-SA; assay type: cell-based, human; settings: Homo sapiens, MES-SA, 48 h treatment, relative to DMSO control, read-out: GI50 in vitro values, MES-SA
Procedure: as §1, §4

GI50 (human SKMEL-28 melanoma; 72 h treatment)	GI50 ([1]; 72 h treatment)	GI50 [2]	GI50 [3]	GI50 [4]	GI50 ([5]; 72 h treatment)	Compound	other results
29 µM	29 µM	37 µM	30 ± 2 µM	25 µM	30 µM	CCOC(=O)/C=C/C1=CCC2C(C)(C)CCC[C@]2(C)[C@@H]1C=O (stereo partly shown) [Compound 6]	–
37 µM	28 µM	37 µM	31 ± 2 µM	26 µM	27 µM	CCOC(=O)C(C)=CC1=CCC2C(C)(C)CCCC2(C)C1C=O (stereo not shown) [Compound 7]	–
28 µM	22 µM	25 µM	24 ± 1 µM	24 µM	20 µM	CC(=O)/C=C/C1=CCC2C(C)(C)CCC[C@]2(C)[C@@H]1C=O (stereo partly shown) [Compound 12]	–

Further lines, the compound ahead of its results:

Compound	GI50 (human SKMEL-28 melanoma; 72 h treatment)	GI50 ([1]; 72 h treatment)	GI50 [2]	GI50 [3]	GI50 [4]	GI50 ([5]; 72 h treatment)	other results
CC1(C)CCCC2(C)C(C=O)C(C=CC(=O)OCc3ccccc3)=CCC12 (stereo not shown) [Compound 9]	39 µM	31 µM	39 µM	33 ± 3 µM	28 µM	27 µM	–
COC(=O)/C=C/C1=CCC2C(C)(C)CCC[C@]2(C)[C@@H]1C=O (stereo partly shown)	–	–	–	–	–	–	GI50 (human SKMEL-28 melanoma; Homo sapiens, SK-MEL-28, 72 h treatment): 70 ± 1 µM; GI50 ([1]; Homo sapiens, Hs 683, 72 h treatment): 33 ± 0.5 µM; GI50 ([2]; Homo sapiens, U373 MG): 39 ± 1 µM; GI50 ([3]; Homo sapiens): 40 ± 8 µM; GI50 ([4]; Homo sapiens, A549): 29 ± 1 µM; GI50 ([5]; Homo sapiens, MCF7, 72 h treatment): 28 ± 1 µM
CC(C)(C)OC(=O)/C=C/C1=CCC2C(C)(C)CCC[C@]2(C)[C@@H]1C=O (stereo partly shown) [Compound 8]	41 µM	29 µM	40 µM	34 ± 3 µM	29 µM	32 µM	–
COC(=O)/C=C/C=C/C1=CCC2C(C)(C)CCC[C@]2(C)[C@@H]1C=O (stereo partly shown) [Compound 10]	25 µM	12 µM	27 µM	25 ± 3 µM	29 µM	31 µM	–
COc1cc([C@@H]2c3cc4c(cc3[C@H](O)[C@H]3COC(=O)[C@H]23)OCO4)cc(OC)c1OC [podophyllotoxin, reference compound]	–	–	–	–	–	–	effect on proliferation/viability of all cells, U87 [6]: no effect on proliferation of ca. 50% of cells; effect on proliferation/viability of all cells, A549 ([4]; apoptosis-resistant A549 NSCLC, concentrations up to 100 μM): no effect on proliferation of ca. 50% of cells
CC1(C)CCC[C@]2(C)[C@H](C=O)C(C=O)=CC[C@@H]12 [Compound P10, 9-epi-polygodial]	–	–	–	–	–	–	calcium influx, HeLa (HeLa cells): did not induce calcium influx; anti-tumor effect, HeLa-derived tumors (HeLa-derived tumors; 40 μg/100 μl intra-tumor injection every other day for 18 days, polygodial significantly more efficacious than P3): not efficacious in vivo; adverse effects, HeLa xenograft mice (HeLa-derived tumors; mouse, in vivo): no adverse effects in vivo; TRPV1 activation (calcium influx), CHO-TRPV1 [7]: do not; reversal of calcium influx by capsazepine, HSC3 (HSC3 cells; CPZ 10 μM): not reversed; calcium influx, HSC3 (HSC3 cells; polygodial 80 μM, P10 4 μM, P3 50 μM): did induce calcium influx; cancer cell viability, HeLa [8]: reduced cancer cell viability in vitro; cancer cell viability, HSC3 (OSCC cell line HSC3): reduced cancer cell viability in vitro
CC1(C)CCC[C@@]2(C)C1CC=C(/C=C/C#N)[C@H]2C=O (stereo partly shown) [Compound 11]	42 µM	28 µM	36 µM	33 ± 3 µM	27 µM	31 µM	–
CC[C@]1(O)C[C@@H]2CN(CCc3c([nH]c4ccccc34)[C@@](C(=O)OC)(c3cc4c(cc3OC)N(C)[C@H]3[C@@](O)(C(=O)OC)[C@H](OC(C)=O)[C@]5(CC)C=CCN6CC[C@]43[C@@H]65)C2)C1 [Vinblastine]	–	–	–	–	–	–	change of potency against MES-SA/Dx5 MDR cell line as compared with parent MES-SA cells ([9]; 48 h MTT): lost their potency by a factor of a thousand; GI50 ([9]; Homo sapiens, MES-SA/Dx5, 48 h treatment, MTT assay, relative to DMSO control, read-out: GI50 in vitro values, MES-SA/Dx5): 5 µM; GI50 [10]: 0.006 µM

Reference: patent US20180237362A1, “NOVEL POLYGODIAL ANALOGS FOR THE TREATMENT OF CANCER AND OTHER PROLIFERATIVE DISEASES” (THE BOARD OF REGENTS OF THE UNIVERSITY OF TAXAS SYSTEM, priority 2015, published 2018)
